Patent US11566057B2, “Long-acting co-agonists of the glucagon and GLP-1 receptors” (Merck Sharp & Dohme Corp., priority 2017, dated 2023)
Like-named read-outs stand apart in the source and are kept apart here. Numbered stars: 1 amine (or outer) side, 2 acyl side, 3 side chain; on linkers, the order of the positions; unused ones are H or OH. Square brackets hold non-standard residues; d marks the D form. Side chains are listed from the residue outwards. Peptide text beside a SMILES is read from it. * marks the point of attachment. Phe(4-CH2NH2) = NCc1ccc(C[C@H](N)C(=O)O)cc1; C18 diacid = O=C(O)CCCCCCCCCCCCCCCCC(=O)*; γGlu = O=C(O)[C@H](CCC(=O)[*:2])N[*:1]; Met(O2) = CS(=O)(=O)CC[C@H](N)C(=O)O; αMeD = C[C@](N)(CC(=O)O)C(=O)O; αMeS = C[C@](N)(CO)C(=O)O; AEEA = NCCOCCOCC(=O)O; Aib = CC(C)(N)C(=O)O

Assays:
human GCGR = molecular target: T1, human GCGR (Homo sapiens, UniProt P47871); assay: cAMP activity assay at the Glucagon receptor (GCGR); format: cell-based; conditions: for hGCGR/hGLP1R (hTone): ratio of GCGR EC50 to GLP1R EC50
T1 construct: expressed in transfected cells; growth medium holds Blasticidin and Hygromycin
In short: (§1)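 Peptides serially diluted from DMSO (10 points) and added to frozen-stock cells bearing human GLP1R (10,000 cells/well) or GCGR (30,000 cells/well), 1 h at RT, dark. EC50 by four-parameter logistic fit of HitHunter cAMPXS luminescence, read following overnight RT incubation.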

human GLP1R = molecular target: T2, human GLP1R (Homo sapiens, UniProt P43220); assay: cAMP activity assay at the GLP-1 receptor (GLP1R); format: cell-based
T2 construct: expressed in transfected cells; growth medium holds Blasticidin and Hygromycin
In short: as §1

[1] = summary statement: EC50 at each of the glucagon and GLP-1 receptors, read-out: EC50 at the glucagon receptor
[2] = cells expressing human GLP1R, cAMP production, buffer with or without 20% human serum (not stated which), read-out: GLP1R EC50 human
[3] = summary statement: EC50 at each of the glucagon and GLP-1 receptors, read-out: EC50 at the GLP-1 receptor

T2 sequence (P43220 24-463): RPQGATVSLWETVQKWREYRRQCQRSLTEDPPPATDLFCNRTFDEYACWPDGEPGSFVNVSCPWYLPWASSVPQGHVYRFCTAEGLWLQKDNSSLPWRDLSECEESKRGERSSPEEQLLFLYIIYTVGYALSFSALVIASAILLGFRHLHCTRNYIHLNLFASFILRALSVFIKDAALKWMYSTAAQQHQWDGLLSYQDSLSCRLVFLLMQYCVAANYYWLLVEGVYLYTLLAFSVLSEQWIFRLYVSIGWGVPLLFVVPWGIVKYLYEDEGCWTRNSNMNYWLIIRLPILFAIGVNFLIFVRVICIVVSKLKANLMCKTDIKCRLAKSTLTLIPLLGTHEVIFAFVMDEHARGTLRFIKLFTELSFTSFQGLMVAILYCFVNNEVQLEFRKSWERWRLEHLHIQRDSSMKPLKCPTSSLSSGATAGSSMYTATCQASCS
T1 sequence (P47871 26-477): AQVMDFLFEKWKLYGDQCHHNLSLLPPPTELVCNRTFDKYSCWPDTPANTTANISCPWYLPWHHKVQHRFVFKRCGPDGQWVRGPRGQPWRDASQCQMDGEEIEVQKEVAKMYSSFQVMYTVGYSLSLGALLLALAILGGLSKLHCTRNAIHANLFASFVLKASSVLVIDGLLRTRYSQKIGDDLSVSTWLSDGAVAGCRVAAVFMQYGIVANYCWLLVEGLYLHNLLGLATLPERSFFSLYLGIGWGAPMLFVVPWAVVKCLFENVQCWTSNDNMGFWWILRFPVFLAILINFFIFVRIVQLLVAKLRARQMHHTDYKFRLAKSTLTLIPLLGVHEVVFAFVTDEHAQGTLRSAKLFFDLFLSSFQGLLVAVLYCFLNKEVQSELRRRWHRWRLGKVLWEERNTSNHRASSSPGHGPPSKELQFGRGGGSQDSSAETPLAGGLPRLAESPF

SMILES | hGCGR/hGLP1R (hTone) (human GCGR) | EC50 (human GCGR; [1]) | EC50 (human GLP1R; [2]) | EC50 (human GLP1R; [3]) | EC50 (human GCGR; cells expressing human GCGR, cAMP production, buffer with or without 20% human serum (not stated which), read-out: GCGR EC50 human)
CC(C)C[C@H](NC(=O)[C@H](Cc1c[nH]c2ccccc12)NC(=O)[C@H](CCC(N)=O)NC(=O)[C@@H](NC(=O)[C@H](Cc1ccccc1)NC(=O)[C@](C)(CC(=O)O)NC(=O)[C@H](CCCCNC(=O)COCCOCCNC(=O)COCCOCCNC(=O)CC[C@H](NC(=O)CCCCCCCCCCCCCCCCC(=O)O)C(=O)O)NC(=O)[C@H](C)NC(=O)[C@H](C)NC(=O)[C@H](CCCNC(=N)N)NC(=O)[C@H](C)NC(=O)[C@](C)(CC(=O)O)NC(=O)[C@H](CC(C)C)NC(=O)[C@H](Cc1ccc(O)cc1)NC(=O)[C@H](CCCCN)NC(=O)[C@H](CO)NC(=O)[C@H](Cc1ccc(O)cc1)NC(=O)[C@H](CC(=O)O)NC(=O)[C@H](CO)NC(=O)[C@@H](NC(=O)[C@H](Cc1ccccc1)NC(=O)[C@@H](NC(=O)CNC(=O)[C@H](CCC(N)=O)NC(=O)C(C)(C)NC(=O)[C@@H](N)Cc1c[nH]cn1)[C@@H](C)O)[C@@H](C)O)C(C)C)C(=O)N[C@@H](CCS(C)(=O)=O)C(=O)N[C@@](C)(CC(=O)O)C(=O)N[C@H](C(N)=O)[C@@H](C)O [TP612] (H-H[Aib]QGTFTSDYSKYL[αMeD]ARAAK([AEEA-AEEA-γGlu-C18 diacid])[αMeD]FVQWL[Met(O2)][αMeD]T-NH2; N-terminus assumed) | <0.41 | < 5 nM | 4.95 nM | < 5 nM | –
CC(C)C[C@H](NC(=O)[C@H](Cc1ccc(O)cc1)NC(=O)[C@H](CCCCN)NC(=O)[C@H](CO)NC(=O)[C@H](Cc1ccc(O)cc1)NC(=O)[C@H](CC(=O)O)NC(=O)[C@H](CO)NC(=O)[C@@H](NC(=O)[C@H](Cc1ccccc1)NC(=O)[C@@H](NC(=O)CNC(=O)[C@H](CCC(N)=O)NC(=O)C(C)(C)NC(=O)[C@@H](N)Cc1c[nH]cn1)[C@@H](C)O)[C@@H](C)O)C(=O)N[C@@H](CC(=O)O)C(=O)N[C@@H](C)C(=O)N[C@@H](CCCNC(=N)N)C(=O)N[C@@H](C)C(=O)N[C@@H](C)C(=O)N[C@@H](CCCCNC(=O)COCCOCCNC(=O)COCCOCCNC(=O)CC[C@H](NC(=O)CCCCCCCCCCCCCCCCC(=O)O)C(=O)O)C(=O)N[C@@H](CC(=O)O)C(=O)N[C@@H](Cc1ccccc1)C(=O)N[C@H](C(=O)N[C@@H](CCC(N)=O)C(=O)N[C@@H](Cc1c[nH]c2ccccc12)C(=O)N[C@@H](CC(C)C)C(=O)N[C@@H](CCS(C)(=O)=O)C(=O)N[C@@H](CCC(N)=O)C(=O)N[C@H](C(N)=O)[C@@H](C)O)C(C)C [TP600] (H-H[Aib]QGTFTSDYSKYLDARAAK([AEEA-AEEA-γGlu-C18 diacid])DFVQWL[Met(O2)]QT-NH2; N-terminus assumed) | 3.1 | < 5 nM | – | < 5 nM | –
CC(C)C[C@H](NC(=O)[C@H](Cc1ccc(O)cc1)NC(=O)[C@H](CCCCN)NC(=O)[C@H](CO)NC(=O)[C@H](Cc1ccc(O)cc1)NC(=O)[C@H](CC(=O)O)NC(=O)[C@H](CO)NC(=O)[C@@H](NC(=O)[C@H](Cc1ccccc1)NC(=O)[C@@H](NC(=O)CNC(=O)[C@H](CCC(N)=O)NC(=O)C(C)(C)NC(=O)[C@@H](N)Cc1c[nH]cn1)[C@@H](C)O)[C@@H](C)O)C(=O)N[C@@H](CC(=O)O)C(=O)N[C@@H](CCC(=O)O)C(=O)N[C@@H](CCCNC(=N)N)C(=O)N[C@@H](C)C(=O)N[C@@H](C)C(=O)N[C@@H](Cc1ccc(CNC(=O)COCCOCCNC(=O)COCCOCCNC(=O)CC[C@H](NC(=O)CCCCCCCCCCCCCCCCC(=O)O)C(=O)O)cc1)C(=O)N[C@@H](CC(=O)O)C(=O)N[C@@H](Cc1ccccc1)C(=O)N[C@H](C(=O)N[C@@H](CCC(N)=O)C(=O)N[C@@H](Cc1c[nH]c2ccccc12)C(=O)N[C@@H](CC(C)C)C(=O)N[C@@H](CC(C)C)C(=O)N[C@@H](CCCCN)C(=O)N[C@H](C(N)=O)[C@@H](C)O)C(C)C [TP587] (H-H[Aib]QGTFTSDYSKYLDERAA[Phe(4-CH2NH2)]([AEEA-AEEA-γGlu-C18 diacid])DFVQWLLKT-NH2; N-terminus assumed) | >4.1 | < 5 nM | 0.41 nM | < 5 nM | –

Further lines, results first:

hGCGR/hGLP1R (hTone) (human GCGR) | EC50 (human GCGR; [1]) | EC50 (human GLP1R; [2]) | EC50 (human GLP1R; [3]) | EC50 (human GCGR; cells expressing human GCGR, cAMP production, buffer with or without 20% human serum (not stated which), read-out: GCGR EC50 human) | SMILES
0.3 | < 5 nM | – | < 5 nM | 0.22 nM | CC(C)C[C@H](NC(=O)[C@H](Cc1c[nH]c2ccccc12)NC(=O)[C@H](CCC(N)=O)NC(=O)[C@@H](NC(=O)[C@H](Cc1ccccc1)NC(=O)[C@H](CC(=O)O)NC(=O)[C@H](CCCCNC(=O)COCCOCCNC(=O)COCCOCCNC(=O)CC[C@H](NC(=O)CCCCCCCCCCCCCCCCC(=O)O)C(=O)O)NC(=O)[C@H](C)NC(=O)[C@H](C)NC(=O)[C@H](CCCNC(=N)N)NC(=O)C(C)(C)NC(=O)[C@H](CC(=O)O)NC(=O)[C@H](CC(C)C)NC(=O)[C@H](Cc1ccc(O)cc1)NC(=O)[C@H](CCCCN)NC(=O)[C@H](CO)NC(=O)[C@H](Cc1ccc(O)cc1)NC(=O)[C@H](CC(=O)O)NC(=O)[C@H](CO)NC(=O)[C@@H](NC(=O)[C@H](Cc1ccccc1)NC(=O)[C@@H](NC(=O)CNC(=O)[C@H](CCC(N)=O)NC(=O)C(C)(C)NC(=O)[C@@H](N)Cc1c[nH]cn1)[C@@H](C)O)[C@@H](C)O)C(C)C)C(=O)N[C@@H](CCS(C)(=O)=O)C(=O)N[C@@H](CCC(=O)O)C(=O)N[C@H](C(N)=O)[C@@H](C)O [TP673] (H-H[Aib]QGTFTSDYSKYLD[Aib]RAAK([AEEA-AEEA-γGlu-C18 diacid])DFVQWL[Met(O2)]ET-NH2; N-terminus assumed)
2.4 | < 5 nM | 0.45 nM | < 5 nM | – | CC(C)C[C@H](NC(=O)[C@H](Cc1ccc(O)cc1)NC(=O)[C@H](CCCCN)NC(=O)[C@H](CO)NC(=O)[C@H](Cc1ccc(O)cc1)NC(=O)[C@H](CC(=O)O)NC(=O)[C@H](CO)NC(=O)[C@@H](NC(=O)[C@H](Cc1ccccc1)NC(=O)[C@@H](NC(=O)CNC(=O)[C@H](CCC(N)=O)NC(=O)C(C)(C)NC(=O)[C@@H](N)Cc1c[nH]cn1)[C@@H](C)O)[C@@H](C)O)C(=O)N[C@@H](CCC(=O)O)C(=O)N[C@@H](C)C(=O)N[C@@H](CCCNC(=N)N)C(=O)N[C@@H](C)C(=O)N[C@@H](C)C(=O)N[C@@H](CCCCNC(=O)COCCOCCNC(=O)COCCOCCNC(=O)CC[C@H](NC(=O)CCCCCCCCCCCCCCCCC(=O)O)C(=O)O)C(=O)N[C@@H](CC(=O)O)C(=O)N[C@@H](Cc1ccccc1)C(=O)N[C@H](C(=O)N[C@@H](CCC(N)=O)C(=O)N[C@@H](Cc1c[nH]c2ccccc12)C(=O)N[C@@H](CC(C)C)C(=O)N[C@@H](CCS(C)(=O)=O)C(=O)N[C@@H](CC(=O)O)C(=O)N[C@H](C(N)=O)[C@@H](C)O)C(C)C [TP674] (H-H[Aib]QGTFTSDYSKYLEARAAK([AEEA-AEEA-γGlu-C18 diacid])DFVQWL[Met(O2)]DT-NH2; N-terminus assumed)
0.7 | < 5 nM | – | < 5 nM | – | CC(C)C[C@H](NC(=O)[C@H](Cc1ccc(O)cc1)NC(=O)[C@H](CCCCN)NC(=O)[C@H](CO)NC(=O)[C@H](Cc1ccc(O)cc1)NC(=O)[C@H](CC(=O)O)NC(=O)[C@H](CO)NC(=O)[C@@H](NC(=O)[C@H](Cc1ccccc1)NC(=O)[C@@H](NC(=O)CNC(=O)[C@H](CCC(N)=O)NC(=O)[C@](C)(CO)NC(=O)[C@@H](N)Cc1c[nH]cn1)[C@@H](C)O)[C@@H](C)O)C(=O)N[C@@H](CC(=O)O)C(=O)N[C@@H](C)C(=O)N[C@@H](CCCNC(=N)N)C(=O)N[C@@H](C)C(=O)N[C@@H](C)C(=O)N[C@@H](CCCCNC(=O)COCCOCCNC(=O)COCCOCCNC(=O)CC[C@H](NC(=O)CCCCCCCCCCCCCCCCC(=O)O)C(=O)O)C(=O)N[C@@H](CC(=O)O)C(=O)N[C@@H](Cc1ccccc1)C(=O)N[C@H](C(=O)N[C@@H](CCC(N)=O)C(=O)N[C@@H](Cc1c[nH]c2ccccc12)C(=O)N[C@@H](CC(C)C)C(=O)N[C@@H](CCS(C)(=O)=O)C(=O)N[C@@](C)(CC(=O)O)C(=O)N[C@H](C(N)=O)[C@@H](C)O)C(C)C [TP616] (H-H[αMeS]QGTFTSDYSKYLDARAAK([AEEA-AEEA-γGlu-C18 diacid])DFVQWL[Met(O2)][αMeD]T-NH2; N-terminus assumed)
0.6 | < 5 nM | – | < 5 nM | – | CC(C)C[C@H](NC(=O)[C@H](Cc1ccc(O)cc1)NC(=O)[C@H](CCCCN)NC(=O)[C@H](CO)NC(=O)[C@H](Cc1ccc(O)cc1)NC(=O)[C@H](CC(=O)O)NC(=O)[C@H](CO)NC(=O)[C@@H](NC(=O)[C@H](Cc1ccccc1)NC(=O)[C@@H](NC(=O)CNC(=O)[C@H](CCC(N)=O)NC(=O)C(C)(C)NC(=O)[C@@H](N)Cc1c[nH]cn1)[C@@H](C)O)[C@@H](C)O)C(=O)N[C@@H](CC(=O)O)C(=O)N[C@@H](C)C(=O)N[C@@H](CCCNC(=N)N)C(=O)N[C@@H](C)C(=O)N[C@@H](C)C(=O)N[C@@H](CCCCNC(=O)COCCOCCNC(=O)CC[C@H](NC(=O)CCCCCCCCCCCCCCCCC(=O)O)C(=O)O)C(=O)N[C@@H](CC(=O)O)C(=O)N[C@@H](Cc1ccccc1)C(=O)N[C@H](C(=O)N[C@@H](CCC(N)=O)C(=O)N[C@@H](Cc1c[nH]c2ccccc12)C(=O)N[C@@H](CC(C)C)C(=O)N[C@@H](CCS(C)(=O)=O)C(=O)N[C@@H](CC(=O)O)C(=O)N[C@H](C(N)=O)[C@@H](C)O)C(C)C [TP626] (H-H[Aib]QGTFTSDYSKYLDARAAK([AEEA-γGlu-C18 diacid])DFVQWL[Met(O2)]DT-NH2; N-terminus assumed)
